Converted amounts (≈) assume the structure as drawn.
Key:
[1] = Inhibition of biotinylated human IL-17A/AF647-labeled human IL-17RA protein-protein interaction preincubated for 30 mins with compound followed by addition of AF647-labeled human IL-17RA incubated for 90 min by TR-FRET assay
[2] = AUC in Sprague-Dawley rat at 3 mg/kg,po measured upto 24 hrs by LC-MS/MS analysis; format: ADME, organism-based; conditions: in vivo; for AUC: po, 3 mg/kg, 24 h; for AUC at 24 h: Sprague-Dawley
[3] = Apparent permeability coefficient of the compound across apical to basolateral side in dog MDCK cells by high-throughput analysis; format: ADME, cell-based, Canis lupus familiaris
[4] = Inhibition of IL-6 production in IL-17/TNF-alpha stimulated human NHDF cells incubated for 24 hrs by ELISA; format: functional, cell-based; conditions: 24 h
[5] = Equilibrium solubility of compound […] at pH 6.8 by high-throughput analysis; format: physicochemical
[6] = Oral bioavailability in Sprague-Dawley rat at 3 mg/kg measured upto 24 hrs by LC-MS/MS analysis; format: ADME, organism-based; conditions: in vivo; for F: po, 3 mg/kg, 24 h; for bioavailability: Sprague-Dawley
[7] = Metabolic stability in rat liver microsomes assessed as intrinsic clearance; format: ADME, Microsome; conditions: read-out: CLH
[8] = Metabolic stability in human liver microsomes assessed as intrinsic clearance; format: ADME, Microsome; conditions: read-out: CLH
[9] = Lipophilicity, logD of compound at pH 7.4; format: physicochemical; conditions: buffer
[10] = Plasma clearance in Sprague-Dawley rat at 1 mg/kg,iv measured upto 24 hrs by LC-MS/MS analysis; format: ADME, organism-based
[11] = system: Rattus norvegicus; test: Antiarthritic activity in antigen-induced arthritis Lewis rat model assessed as reduction in knee swelling at 10 mg/kg,po bid administrated for 4 days; format: functional; set-up: scale not given: the % may be the effect or the level left; conditions: time 4 day
[12] = Hepatotoxicity in dog assessed as increase in serum liver enzyme at 50 mg/kg administration measured after 3 days; format: toxicity, organism-based, Canis lupus familiaris; conditions: in vivo, 72 h, time 3 day

Row | Structure (SMILES) | IC50 [1] | AUC [2] | Papp A→B [3] | IC50 [4] | solubility [5] | F [6] | microsomal CLint [7] | microsomal CLint [8] | logD [9] | AUC at 24 h [2] | bioavailability [6] | clearance [10] | Activity [11] | Activity [12]
1 | COC[C@H](c1cnn2cc([C@@H](Nc3cc(OC)ncn3)C3CCC(F)(F)CC3)nc2c1)N1C[C@@H](C(F)(F)F)NC1=O | 735 nM | – | 11 ×10⁻⁶ cm/s | 493 nM | 700 µM (≈ 409 µg/mL) | – | 77 µL/min/mg | 31 µL/min/mg | 3.2 | – | – | – | – | –
2 | COC[C@H](c1cnn2cc([C@@H](Nc3ncc(C4CC4)o3)C3CCC(F)(F)CC3)nc2c1)N1C[C@@H](C(F)(F)F)NC1=O | 80 nM | – | 17 ×10⁻⁶ cm/s | 64 nM | 270 µM (≈ 158 µg/mL) | – | > 1000 µL/min/mg | 261 µL/min/mg | > 4.7 | – | – | – | – | –
3 | COC[C@H](c1cnn2cc([C@@H](NC(=O)/C(F)=C3\CCOC3)C3CCC(F)(F)CC3)nc2c1)N1C[C@@H](C(F)(F)F)NC1=O | 102 nM | – | 7.4 ×10⁻⁶ cm/s | 34 nM | > 750 µM | – | 321 µL/min/mg | 50 µL/min/mg | 2.6 | 0.08 µM·h | 4% | 42 mL/min/kg | – | –
4 | COC[C@H](c1cnn2cc([C@@H](Nc3nnc(C)n3C)C3CCC(F)(F)CC3)nc2c1)N1C[C@@H](C(F)(F)F)NC1=O | 1820 nM | – | 0.4 ×10⁻⁶ cm/s | 2690 nM | > 750 µM | – | 13 µL/min/mg | 18 µL/min/mg | 1.5 | – | – | – | – | –
5 | COC[C@H](c1cnn2cc([C@@H](NC(=O)c3nonc3C)C3CCC(F)(F)CC3)nc2c1)N1C[C@@H](C(F)(F)F)NC1=O [LY-3509754] | 10 nM | – | 11 ×10⁻⁶ cm/s | 4 nM | 380 µM (≈ 223 µg/mL) | – | 20 µL/min/mg | 32 µL/min/mg | 3.1 | 5.43 µM·h | 119% | 24 mL/min/kg | – | –
6 | COC[C@H](c1cnn2cc([C@@H](Nc3noc(C(C)(F)F)n3)C3CCC(F)(F)CC3)nc2c1)N1C[C@@H](C(F)(F)F)NC1=O | 30 nM | – | 20 ×10⁻⁶ cm/s | 27 nM | 130 µM (≈ 79.1 µg/mL) | – | 33 µL/min/mg | 49 µL/min/mg | 3.7 | – | – | – | – | –
7 | COC[C@H](c1cnn2cc([C@@H](Nc3nnc(C)o3)C3CCC(F)(F)CC3)nc2c1)N1C[C@@H](C(F)(F)F)NC1=O | 85 nM | – | 0.5 ×10⁻⁶ cm/s | 49 nM | > 750 µM | – | 28 µL/min/mg | 23 µL/min/mg | 1.9 | – | – | – | – | –
8 | COC[C@H](c1cnn2cc([C@@H](Nc3cc(C)on3)C3CCC(F)(F)CC3)nc2c1)N1C[C@@H](C(F)(F)F)NC1=O | 62 nM | – | 3.3 ×10⁻⁶ cm/s | 75 nM | 600 µM (≈ 335 µg/mL) | – | 156 µL/min/mg | 42 µL/min/mg | 2.9 | – | – | – | – | –
9 | COC[C@H](c1cnn2cc([C@@H](Nc3nnc(C4CC4)o3)C3CCC(F)(F)CC3)nc2c1)N1C[C@@H](C(F)(F)F)NC1=O | 53 nM | – | 1.7 ×10⁻⁶ cm/s | 15 nM | > 750 µM | – | 17 µL/min/mg | < 25 µL/min/mg | 2.7 | 0.026 µM·h | 2.5% | 86 mL/min/kg | – | –
10 | COC[C@H](c1cnn2cc([C@@H](Nc3nc(C(C)(F)F)no3)C3CCC(F)(F)CC3)nc2c1)N1C[C@@H](C(F)(F)F)NC1=O | 116 nM | – | 9.7 ×10⁻⁶ cm/s | 107 nM | 200 µM (≈ 122 µg/mL) | – | 18 µL/min/mg | 18 µL/min/mg | 3.5 | – | – | – | – | –
11 | COC[C@H](c1cnn2cc([C@@H](Nc3nnc(C)s3)C3CCC(F)(F)CC3)nc2c1)N1C[C@@H](C(F)(F)F)NC1=O | 61 nM | – | 1.3 ×10⁻⁶ cm/s | 45 nM | 610 µM (≈ 350 µg/mL) | – | 75 µL/min/mg | 50 µL/min/mg | 2.5 | – | – | – | – | –
12 | COC[C@H](c1cnn2cc([C@@H](Nc3nnc(C(C)(F)F)o3)C3CCC(F)(F)CC3)nc2c1)N1C[C@@H](C(F)(F)F)NC1=O | 38 nM | 0.946 µM·h | 3.6 ×10⁻⁶ cm/s | 8 nM | 400 µM (≈ 243 µg/mL) | 41% | 18 µL/min/mg | 37 µL/min/mg | 3 | – | – | – | 64% | –
13 | CC(F)(F)c1nnc(N[C@H](c2cn3ncc([C@@H](C4CC4)N4C[C@@H](C(F)(F)F)NC4=O)cc3n2)C2CCC(F)(F)CC2)o1 | 21 nM | – | 10 ×10⁻⁶ cm/s | 6 nM | 45 µM (≈ 27.2 µg/mL) | – | 37 µL/min/mg | 66 µL/min/mg | 3.9 | 0.569 µM·h | 41% | 56 mL/min/kg | 68% | Toxic
14 | COC[C@H](c1cnn2cc([C@@H](Nc3nnc(C(F)(F)F)o3)C3CCC(F)(F)CC3)nc2c1)N1C[C@@H](C(F)(F)F)NC1=O | 25 nM | – | 8 ×10⁻⁶ cm/s | 15 nM | 270 µM (≈ 165 µg/mL) | – | < 25 µL/min/mg | < 10 µL/min/mg | 3.4 | – | – | – | – | –

Further lines, with some results ahead:

Row | IC50 [1] | AUC [2] | Papp A→B [3] | IC50 [4] | solubility [5] | F [6] | microsomal CLint [7] | microsomal CLint [8] | logD [9] | AUC at 24 h [2] | bioavailability [6] | clearance [10] | Structure (SMILES) | Activity [11] | Activity [12]
15 | 16 nM | 0.013 µM·h | 12 ×10⁻⁶ cm/s | 4 nM | 560 µM (≈ 340 µg/mL) | 23% | 64 µL/min/mg | 164 µL/min/mg | 2.8 | – | – | – | COC[C@H](c1cnn2cc([C@@H](NC(=O)/C(F)=C\C3(F)CC3)C3CCC(F)(F)CC3)nc2c1)N1C[C@@H](C(F)(F)F)NC1=O | – | –
16 | 85 nM | – | 5.5 ×10⁻⁶ cm/s | 74 nM | > 750 µM | – | 26 µL/min/mg | 15 µL/min/mg | 2.5 | – | – | – | COC[C@H](c1cnn2cc([C@@H](NC(=O)C(C)(F)F)C3CCC(F)(F)CC3)nc2c1)N1C[C@@H](C(F)(F)F)NC1=O | – | –
17 | 19 nM | – | 25 ×10⁻⁶ cm/s | 8 nM | 340 µM (≈ 196 µg/mL) | – | > 1000 µL/min/mg | 161 µL/min/mg | 3.2 | – | – | – | COC[C@H](c1cnn2cc([C@@H](NC(=O)C(F)=C(C)C)C3CCC(F)(F)CC3)nc2c1)N1C[C@@H](C(F)(F)F)NC1=O | – | –
18 | 31 nM | 0.025 µM·h | 6.5 ×10⁻⁶ cm/s | 27 nM | > 750 µM | 113% | 33 µL/min/mg | 11 µL/min/mg | 2.5 | – | – | – | C=C(F)C(=O)N[C@H](c1cn2ncc([C@@H](COC)N3C[C@@H](C(F)(F)F)NC3=O)cc2n1)C1CCC(F)(F)CC1 | – | –
19 | 19 nM | – | 9.7 ×10⁻⁶ cm/s | 7 nM | 700 µM (≈ 394 µg/mL) | – | 166 µL/min/mg | 90 µL/min/mg | 3 | – | – | – | C/C=C(\F)C(=O)N[C@H](c1cn2ncc([C@@H](COC)N3C[C@@H](C(F)(F)F)NC3=O)cc2n1)C1CCC(F)(F)CC1 | – | –
20 | 11 nM | 0.053 µM·h | 17 ×10⁻⁶ cm/s | 4 nM | 600 µM (≈ 338 µg/mL) | 55% | 240 µL/min/mg | 159 µL/min/mg | 3 | – | – | – | C/C=C(/F)C(=O)N[C@H](c1cn2ncc([C@@H](COC)N3C[C@@H](C(F)(F)F)NC3=O)cc2n1)C1CCC(F)(F)CC1 | – | –
